Some results are limits rather than exact numbers.

The test deals with T1, recombinant glucosyltransferase domain of C. difficile Toxin B/TcdB (Clostridioides difficile, UniProt P18177).
T1 construct: 6-His (C); purchased R&D Systems 6246-GT
T1 sequence (P18177 1-543): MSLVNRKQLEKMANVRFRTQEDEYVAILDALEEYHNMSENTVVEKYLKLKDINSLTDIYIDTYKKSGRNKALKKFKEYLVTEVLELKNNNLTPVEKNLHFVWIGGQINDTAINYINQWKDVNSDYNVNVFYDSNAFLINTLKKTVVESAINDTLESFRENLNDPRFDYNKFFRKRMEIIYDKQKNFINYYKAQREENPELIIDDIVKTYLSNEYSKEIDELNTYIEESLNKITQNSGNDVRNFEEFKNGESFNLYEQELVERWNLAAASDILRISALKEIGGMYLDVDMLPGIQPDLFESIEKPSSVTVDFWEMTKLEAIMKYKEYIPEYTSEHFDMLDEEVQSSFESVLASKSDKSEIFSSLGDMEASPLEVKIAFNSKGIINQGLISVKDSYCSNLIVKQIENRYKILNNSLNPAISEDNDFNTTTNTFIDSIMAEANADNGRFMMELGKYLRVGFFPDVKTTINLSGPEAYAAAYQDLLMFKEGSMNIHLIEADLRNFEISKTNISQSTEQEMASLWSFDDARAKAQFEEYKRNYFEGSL
The test is described as follows: biochemical.
A word on the IC50: it is the concentration needed to halve the response being measured. For the molecule `CN(C)CC(=O)Nc1cc(CN2C(=O)c3ccc(Cl)cc3NC(=O)[C@H]2Cc2ccccn2)ccc1C(=O)O` [Example 22d], the IC50 was in the range of 1000 to 10000 nM.

On to `O=C(Nc1ccccn1)c1ccc(CN2C(=O)c3cc(Cl)ccc3NC(=O)[C@H]2Cc2cccnc2)cc1` [Example 35h], for which the IC50 lay within 100 to 999 nM.

Take `O=C(O)c1ccc(CN2C(=O)c3ccc(Cl)cc3NC(=O)[C@H]2Cc2cccs2)cc1` [Example 1k]: the IC50 lay within 10000 to 35000 nM.

Take `CC1(C)Cc2cccnc2N1C(=O)c1ccc(CN2C(=O)c3ccc(Cl)cc3NC(=O)[C@H]2Cc2ccccn2)cc1Cl` [Example 4ar, (R)-8-chloro-4-(3-chloro-4-(2,2-dimethyl-2,3-dihydro-1H-pyrrolo[2,3-b]pyridine-1-carbonyl)benzyl)-3-(pyridin-2-ylmethyl)-3,4-dihydro-1H-benzo[e][1,4]diazepine-2,5-dione]: the IC50 was < 100 nM.

In the case of `COc1ccc(-c2cc(CN3C(=O)c4ccc(Cl)cc4NC(=O)[C@H]3Cc3ccccn3)ccc2C(=O)O)cc1` [Example 8f, (R)-5-((8-chloro-2,5-dioxo-3-(pyridin-2-ylmethyl)-2,3-dihydro-1H-benzo[e][1,4]diazepin-4(5H)-yl)methyl)-4′-methoxy-[1,1′-biphenyl]-2-carboxylic acid], the 50% inhibitory concentration (IC50) was in the range of 100 to 999 nM.

As to `O=C(NS(=O)(=O)c1ccccc1)c1ccc(CN2C(=O)c3ccc(Cl)cc3NC(=O)[C@H]2Cc2cccnc2)cc1` [Example 15a, (R)-4-((8-Chloro-2,5-dioxo-3-(pyridin-3-ylmethyl)-2,3-dihydro-1H-benzo[e][1,4]diazepin-4(5H)-yl)methyl)-N-(phenylsulfonyl)benzamide], the IC50 fell in the range of 1000 to 10000 nM.

With `COc1cc(NC(=O)c2ccc(CN3C(=O)c4ccc(Cl)cc4NC(=O)[C@H]3Cc3cccnc3)cc2)ncn1` [Example 5j], the IC50 was < 100 nM.

For the molecule `Cc1cc(CN2C(=O)c3ccc(Cl)cc3NC(=O)[C@H]2Cc2ccccn2)ccc1C(=O)Nc1ccc(F)cn1` [Example 5ap, (R)-4-((8-chloro-2,5-dioxo-3-(pyridin-2-ylmethyl)-2,3-dihydro-1H-benzo[e][1,4]diazepin-4(5H)-yl)methyl)-N-(5-fluoropyridin-2-yl)-2-methylbenzamide], the IC50 is < 100 nM.

For the molecule `Cn1ccc(NC(=O)c2ccc(CN3C(=O)c4ccc(Cl)cc4NC(=O)[C@H]3Cc3cccnc3)cc2)n1` [Example 4d, (R)-4-((8-chloro-2,5-dioxo-3-(pyridin-3-ylmethyl)-2,3-dihydro-1H-benzo[e][1,4]diazepin-4(5H)-yl)methyl)-N-(1-methyl-1H-pyrazol-3-yl)benzamide], the IC50 lay in the range of 100 to 999 nM.

Regarding `O=C(Nc1ccccn1)c1ccc(CN2C(=O)c3cccc(Cl)c3NC(=O)[C@H]2Cc2cccnc2)cc1` [Example 35i], the IC50 lay in the range of 1000 to 10000 nM.

As for `O=C1Nc2cc(Cl)ccc2C(=O)N(Cc2ccc(C(=O)N3CCCC3=O)cc2)[C@@H]1Cc1ccccn1` [Example 12b, (R)-8-chloro-4-(4-(2-oxopyrrolidine-1-carbonyl)benzyl)-3-(pyridin-2-ylmethyl)-3,4-dihydro-1H-benzo[e][1,4]diazepine-2,5-dione], the IC50 was in the range of 1000 to 10000 nM.

As for `COc1cnc(NC(=O)c2ccc(CN3C(=O)c4ccc(Cl)cc4NC(=O)[C@H]3Cc3ccccn3)cc2)nc1` [Example 5a, (R)-4-((8-chloro-2,5-dioxo-3-(pyridin-2-ylmethyl)-2,3-dihydro-1H-benzo[e][1,4]diazepin-4(5H)-yl)methyl)-N-(5-methoxypyrimidin-2-yl)benzamide], the IC50 was < 100 nM.

For `O=C(O)c1ccc(CN2C(=O)c3ccc(F)cc3NC(=O)[C@H]2Cc2cccnc2)cc1` [Example 1b], the IC50 was in the range of 1000 to 10000 nM.

Consider `O=C(Nc1ccccn1)c1cccc(S(=O)(=O)N2Cc3ccc(Cl)cc3NC(=O)[C@H]2Cc2ccccn2)c1` [Example 19j, (R)-3-((8-chloro-2-oxo-3-(pyridin-2-ylmethyl)-2,3-dihydro-1H-benzo[e][1,4]diazepin-4(5H)-yl)sulfonyl)-N-(pyridin-2-yl)benzamide], for which the IC50 lay within 10000 to 35000 nM.

Turning to `O=C(Nc1ccccn1)c1ccc(CN2C(=O)c3ccc(Br)cc3NC(=O)[C@H]2Cc2cccnc2)cc1` [Example 4bd, (R)-4-((8-bromo-2,5-dioxo-3-(pyridin-3-ylmethyl)-2,3-dihydro-1H-benzo[e][1,4]diazepin-4(5H)-yl)methyl)-N-(pyridin-2-yl)benzamide], the IC50 was < 100 nM.

In the case of `O=C(Nc1cccnn1)c1ccc(CN2C(=O)c3ccc(Cl)cc3NC(=O)[C@H]2Cc2ccccn2)cc1` [Example 4bl, (R)-4-((8-chloro-2,5-dioxo-3-(pyridin-2-ylmethyl)-2,3-dihydro-1H-benzo[e][1,4]diazepin-4(5H)-yl)methyl)-N-(pyridazin-3-yl)benzamide], the IC50 was 100 to 999 nM.

Consider `CS(=O)(=O)c1ccc(NC(=O)c2ccc(CN3C(=O)c4ccc(Cl)cc4NC(=O)[C@H]3Cc3ccccn3)cc2Cl)nc1` [Example 5av, (R)-2-chloro-4-((8-chloro-2,5-dioxo-3-(pyridin-2-ylmethyl)-2,3-dihydro-1H-benzo[e][1,4]diazepin-4(5H)-yl)methyl)-N-(5-(methylsulfonyl)pyridin-2-yl)benzamide], for which the IC50 is < 100 nM.

`O=C(O)c1ccc(CN2C(=O)c3ccc(Cl)cc3NC(=O)[C@H]2Cc2ccccc2F)cc1` [Example 3j]: the IC50 was 10000 to 35000 nM.

Turning to `C[C@@H]1C(=O)Nc2cc(Cl)ccc2C(=O)N1Cc1ccc(C(=O)Nc2ncc3ccccc3n2)cc1` [Example 5n, (R)-4-((8-chloro-3-methyl-2,5-dioxo-2,3-dihydro-1H-benzo[e][1,4]diazepin-4(5H)-yl)methyl)-N-(quinazolin-2-yl)benzamide], the IC50 was 100 to 999 nM.

As for `Cc1cccc(C(=O)Nc2ccc(CN3C(=O)c4ccc(Cl)cc4NC(=O)[C@H]3Cc3ccccn3)cc2)n1` [Example 26d], the IC50 was in the range of 1000 to 10000 nM.

For `O=C(Nc1ccccn1)c1ccc(CN2C(=O)c3ccc(Cl)cc3NC(=O)[C@H]2Cc2cccc(Cl)c2)cc1` [Example 4aa, (R)-4-((8-chloro-3-(3-chlorobenzyl)-2,5-dioxo-2,3-dihydro-1H-benzo[e][1,4]diazepin-4(5H)-yl)methyl)-N-(pyridin-2-yl)benzamide], the IC50 was < 100 nM.

In the case of `O=C(Nc1ccccn1)c1ccc(CN2Cc3ccc(Cl)cc3NC(=O)[C@H]2Cc2ccccn2)cc1` [Example 20a, (R)-4-((8-Chloro-2-oxo-3-(pyridin-2-ylmethyl)-2,3-dihydro-1H-benzo[e][1,4]diazepin-4(5H)-yl)methyl)-N-(pyridin-2-yl)benzamide], the IC50 was 1000 to 10000 nM.

Turning to `O=C(Nc1ccc(CN2C(=O)c3ccc(Cl)cc3NC(=O)[C@H]2Cc2ccccn2)cc1)c1cscn1` [Example 27f], the IC50 is < 100 nM.

Regarding `O=C(Nc1ccccn1)c1ccc(CN2C(=O)c3ccc(Cl)cc3NC(=O)[C@H]2Cc2ccccc2)cc1` [Example 4h, (R)-4-((3-benzyl-8-chloro-2,5-dioxo-2,3-dihydro-1H-benzo[e][1,4]diazepin-4(5H)-yl)methyl)-N-(pyridin-2-yl)benzamide], the IC50 was < 100 nM.

`C[C@H]1C(=O)Nc2cc(Cl)ccc2C(=O)N1Cc1ccc(C(=O)Nc2ccccn2)cc1` [Example 4f, (S)-4-((8-chloro-3-methyl-2,5-dioxo-2,3-dihydro-1H-benzo[e][1,4]diazepin-4(5H)-yl)methyl)-N-(pyridin-2-yl)benzamide]: the IC50 is < 100 nM.

With `CN1CCC(C(=O)Nc2cc(CN3C(=O)c4ccc(Cl)cc4NC(=O)[C@H]3Cc3ccccn3)ccc2C(=O)O)CC1` [Example 22i], the IC50 lay in the range of 10000 to 35000 nM.

For `Cc1ccc(C[C@@H]2C(=O)Nc3cc(Cl)ccc3C(=O)N2Cc2ccc(C(=O)O)cc2)cc1` [Example 3h], the IC50 lay within 10000 to 35000 nM.

For the molecule `COCC(=O)Nc1cc(CN2C(=O)c3ccc(Cl)cc3NC(=O)[C@H]2Cc2ccccn2)ccc1C(=O)O` [Example 22b], the IC50 was 100 to 999 nM.

As to `O=C(CN1CCOCC1)Nc1cc(CN2C(=O)c3ccc(Cl)cc3NC(=O)[C@H]2Cc2ccccn2)ccc1C(=O)O` [Example 22h], the IC50 lay in the range of 1000 to 10000 nM.

Take `Cc1nc2cccnc2c(=O)n1-c1ccc(CN2C(=O)c3ccc(Cl)cc3NC(=O)[C@H]2Cc2ccccn2)cc1` [Example 47a, (R)-8-Chloro-4-(4-(2-methyl-4-oxopyrido[3,2-d]pyrimidin-3(4H)-yl)benzyl)-3-(pyridin-2-ylmethyl)-3,4-dihydro-1H-benzo[e][1,4]diazepine-2,5-dione]: the IC50 was < 100 nM.

In the case of `CC1C(=O)Nc2cc(Cl)ccc2C(=O)N1C1(c2ccc(C(=O)c3cccn4ccnc34)cc2)CC1` (stereo not drawn) [Example 50a, 8-Chloro-4-(1-(4-(imidazo[1,2-α]pyridine-8-carbonyl)phenyl)cyclopropyl)-3-methyl-3,4-dihydro-1H-benzo[e][1,4]diazepine-2,5-dione], the IC50 lay in the range of 100 to 999 nM.

For `Cc1ccc(NC(=O)c2ccc(CN3C(=O)c4ccc(Cl)cc4NC(=O)[C@H]3CCN(C)C)cc2)nc1` [Example 10f, (R)-4-((8-chloro-3-(2-(dimethylamino)ethyl)-2,5-dioxo-2,3-dihydro-1H-benzo[e][1,4]diazepin-4(5H)-yl)methyl)-N-(5-methylpyridin-2-yl)benzamide], the IC50 lay in the range of 10000 to 35000 nM.

For the molecule `CC(C)[C@@H]1C(=O)Nc2cc(Cl)ccc2C(=O)N1Cc1ccc(C(=O)O)cc1` [Example 3k], the half-inhibitory concentration (IC50) is 100 to 999 nM.

Regarding `COc1cnc(NC(=O)[C@H]2CC[C@H](CN3C(=O)c4ccc(Cl)cc4NC(=O)[C@H]3Cc3ccccn3)CC2)cn1` [Example 4ce, (1R,4r)-4-(((R)-8-chloro-2,5-dioxo-3-(pyridin-2-ylmethyl)-2,3-dihydro-1H-benzo[e][1,4]diazepin-4(5H)-yl)methyl)-N-(5-methoxypyrazin-2-yl)cyclohexanecarboxamide], the IC50 lay within 100 to 999 nM.

Consider `Cc1cccc(C[C@@H]2C(=O)Nc3cc(Cl)ccc3C(=O)N2Cc2ccc(C(=O)O)cc2)c1` [Example 3m], for which the IC50 lay in the range of 1000 to 10000 nM.

In the case of `O=C(Nc1ccccn1)c1ccc(S(=O)(=O)N2Cc3ccc(Cl)cc3NC(=O)[C@@H]2Cc2ccccn2)cc1` [Example 19c, (S)-4-((8-chloro-2-oxo-3-(pyridin-2-ylmethyl)-2,3-dihydro-1H-benzo[e][1,4]diazepin-4(5H)-yl)sulfonyl)-N-(pyridin-2-yl)benzamide], the IC50 lay in the range of 100 to 999 nM.
